Patent publication US20250042900A1 (priority 2022, published 2025)
Counter-ions that a name gives are not always drawn.

Experiments:
[1] = target: Cannabinoid Receptor 2 (CNR2) (Homo sapiens, UniProt P34972); experiment: cAMP secondary messenger assay, antagonist format; assay type: cell-based; details: read-out: IC50 (μM) Antag./Blocker/Inhibitor
[2] = target: Cholecystokinin Receptor A (CCKAR) (Homo sapiens, UniProt P32238); experiment: Calcium flux secondary messenger assay, antagonist format; assay type: cell-based; details: read-out: IC50 (μM) Antag./Blocker/Inhibitor
Cholecystokinin Receptor A (CCKAR), sequence (P32238 whole entry): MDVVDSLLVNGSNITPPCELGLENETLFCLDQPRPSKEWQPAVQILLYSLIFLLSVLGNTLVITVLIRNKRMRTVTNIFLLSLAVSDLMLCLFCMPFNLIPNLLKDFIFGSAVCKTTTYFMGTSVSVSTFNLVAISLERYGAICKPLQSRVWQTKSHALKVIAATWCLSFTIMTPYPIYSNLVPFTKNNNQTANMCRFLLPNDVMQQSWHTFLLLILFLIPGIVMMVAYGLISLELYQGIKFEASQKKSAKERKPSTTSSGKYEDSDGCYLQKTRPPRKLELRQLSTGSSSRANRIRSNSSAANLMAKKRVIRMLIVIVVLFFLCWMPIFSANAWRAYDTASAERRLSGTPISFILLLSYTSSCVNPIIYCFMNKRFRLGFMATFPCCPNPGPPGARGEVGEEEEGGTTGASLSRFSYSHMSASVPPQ

COX1 = target: T1, COX1 (Homo sapiens, UniProt P23219); experiment: Enzymatic assay COX1; assay type: biochemical; details: inhibitor, read-out: IC50 (μM) Antag./Blocker/Inhibitor
T1 construct: purchased BPS Bioscience

[3] = target: T2, N-methyl-D-aspartate (NMDA) Glutamate Receptor 1A/2B (NMDAR (1A/2B)) (Homo sapiens, UniProt Q05586+Q13224); experiment: Ion channel assay, opener format; assay type: cell-based; details: read-out: EC50 (μM) Agonist/Opener
T2 sequence (Q13224 27-1484, other chains not shown): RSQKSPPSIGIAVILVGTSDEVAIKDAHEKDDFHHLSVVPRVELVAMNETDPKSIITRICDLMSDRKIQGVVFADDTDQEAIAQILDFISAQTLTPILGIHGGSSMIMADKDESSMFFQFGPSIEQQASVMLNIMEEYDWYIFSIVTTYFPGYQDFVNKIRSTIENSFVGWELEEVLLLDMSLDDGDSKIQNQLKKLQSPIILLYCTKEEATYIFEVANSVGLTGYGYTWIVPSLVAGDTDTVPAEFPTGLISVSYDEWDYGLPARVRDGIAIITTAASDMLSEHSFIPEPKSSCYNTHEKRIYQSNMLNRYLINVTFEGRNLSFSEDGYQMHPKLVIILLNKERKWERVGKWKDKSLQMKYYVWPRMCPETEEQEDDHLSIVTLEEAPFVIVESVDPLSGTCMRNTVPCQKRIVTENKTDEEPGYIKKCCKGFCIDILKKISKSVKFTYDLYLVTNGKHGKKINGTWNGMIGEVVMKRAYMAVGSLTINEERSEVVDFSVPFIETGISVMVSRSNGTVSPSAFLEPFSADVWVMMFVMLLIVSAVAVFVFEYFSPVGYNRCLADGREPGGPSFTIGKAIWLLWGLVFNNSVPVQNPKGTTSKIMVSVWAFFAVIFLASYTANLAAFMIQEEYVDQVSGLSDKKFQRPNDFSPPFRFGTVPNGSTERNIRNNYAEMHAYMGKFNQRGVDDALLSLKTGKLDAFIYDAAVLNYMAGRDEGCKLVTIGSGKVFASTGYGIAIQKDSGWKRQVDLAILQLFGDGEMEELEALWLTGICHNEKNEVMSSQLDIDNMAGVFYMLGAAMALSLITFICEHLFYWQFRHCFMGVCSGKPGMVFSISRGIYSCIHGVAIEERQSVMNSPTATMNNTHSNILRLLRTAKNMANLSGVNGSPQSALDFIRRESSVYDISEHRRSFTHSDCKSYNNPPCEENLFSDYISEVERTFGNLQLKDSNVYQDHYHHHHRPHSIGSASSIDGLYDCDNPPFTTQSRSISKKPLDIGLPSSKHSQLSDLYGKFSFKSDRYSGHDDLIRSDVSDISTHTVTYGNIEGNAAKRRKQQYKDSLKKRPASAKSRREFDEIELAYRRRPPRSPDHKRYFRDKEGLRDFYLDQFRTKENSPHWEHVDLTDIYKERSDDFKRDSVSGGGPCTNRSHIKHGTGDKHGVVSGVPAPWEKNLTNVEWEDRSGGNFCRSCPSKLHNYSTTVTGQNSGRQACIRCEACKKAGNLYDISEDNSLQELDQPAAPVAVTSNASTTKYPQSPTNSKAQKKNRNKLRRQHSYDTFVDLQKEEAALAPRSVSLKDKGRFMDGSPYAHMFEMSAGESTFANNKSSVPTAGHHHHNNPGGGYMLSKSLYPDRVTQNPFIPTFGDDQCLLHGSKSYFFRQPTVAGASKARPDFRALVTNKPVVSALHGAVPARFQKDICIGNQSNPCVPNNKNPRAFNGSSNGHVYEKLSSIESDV

[4] = target: Cannabinoid Receptor 1 (CNR1) (Homo sapiens, UniProt P21554); experiment: cAMP secondary messenger assay, antagonist format; assay type: cell-based; details: read-out: IC50 (μM) Antag./Blocker/Inhibitor
Cannabinoid Receptor 1 (CNR1), sequence (P21554 whole entry): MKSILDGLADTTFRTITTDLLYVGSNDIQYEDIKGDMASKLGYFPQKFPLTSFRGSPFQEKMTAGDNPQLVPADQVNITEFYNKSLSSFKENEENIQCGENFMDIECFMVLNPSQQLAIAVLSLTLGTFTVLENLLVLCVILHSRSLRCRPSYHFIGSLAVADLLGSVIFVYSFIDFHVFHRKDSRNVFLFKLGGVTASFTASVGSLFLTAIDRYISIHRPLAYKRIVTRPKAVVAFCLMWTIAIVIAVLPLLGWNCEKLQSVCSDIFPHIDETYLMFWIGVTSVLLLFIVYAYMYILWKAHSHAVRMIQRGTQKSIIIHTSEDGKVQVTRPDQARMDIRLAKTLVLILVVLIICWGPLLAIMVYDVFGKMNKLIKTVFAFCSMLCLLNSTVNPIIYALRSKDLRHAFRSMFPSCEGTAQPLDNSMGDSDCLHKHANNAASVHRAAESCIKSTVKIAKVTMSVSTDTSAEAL

[5] = tested on: Gamma-aminobutyric acid Receptor A (GABAA); experiment: Ion channel assay, opener format; assay type: cell-based; details: read-out: EC50 (μM) Agonist/Opener
[6] = target: Opioid Receptor Kappa 1 (OPRK1) (Homo sapiens, UniProt P41145); experiment: cAMP secondary messenger assay, agonist format; assay type: cell-based; details: read-out: EC50 (μM) Agonist/Opener
Opioid Receptor Kappa 1 (OPRK1), sequence (P41145 whole entry): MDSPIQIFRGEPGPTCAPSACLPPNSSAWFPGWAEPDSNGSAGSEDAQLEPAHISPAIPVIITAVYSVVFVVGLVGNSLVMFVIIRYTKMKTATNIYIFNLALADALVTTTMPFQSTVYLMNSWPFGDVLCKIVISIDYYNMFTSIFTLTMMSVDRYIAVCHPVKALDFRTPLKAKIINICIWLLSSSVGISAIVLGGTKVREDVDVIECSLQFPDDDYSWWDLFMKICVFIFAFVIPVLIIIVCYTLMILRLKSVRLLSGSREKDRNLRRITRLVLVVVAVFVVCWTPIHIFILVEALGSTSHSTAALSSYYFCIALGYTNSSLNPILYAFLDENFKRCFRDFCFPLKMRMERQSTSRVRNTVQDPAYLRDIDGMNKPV

[7] = target: T3, 5-Hydroxytryptamine (Serotonin) Receptor 3A (5-HT3A) (Homo sapiens, UniProt P46098); experiment: Ion channel assay, blocker format; assay type: cell-based; details: read-out: IC50 (μM) Antag./Blocker/Inhibitor
T3 construct: expressed in transfected cells
T3 sequence (P46098 24-478): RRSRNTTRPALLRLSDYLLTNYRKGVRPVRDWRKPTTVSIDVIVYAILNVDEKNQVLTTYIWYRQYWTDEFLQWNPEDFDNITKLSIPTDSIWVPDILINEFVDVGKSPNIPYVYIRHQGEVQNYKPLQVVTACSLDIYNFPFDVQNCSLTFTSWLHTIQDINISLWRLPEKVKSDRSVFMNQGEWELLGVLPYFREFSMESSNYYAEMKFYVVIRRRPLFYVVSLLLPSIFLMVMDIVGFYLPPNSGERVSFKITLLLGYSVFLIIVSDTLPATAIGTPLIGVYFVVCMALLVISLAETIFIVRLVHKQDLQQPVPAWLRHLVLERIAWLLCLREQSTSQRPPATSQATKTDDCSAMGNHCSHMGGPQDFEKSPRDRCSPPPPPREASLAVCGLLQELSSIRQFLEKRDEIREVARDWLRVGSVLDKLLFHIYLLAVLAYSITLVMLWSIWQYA

[8] = target: T4, Lymphocyte Cell-Specific Protein-Tyrosine Kinase (Src family) (LCK) (Homo sapiens, UniProt P06239); experiment: Kinase binding assay (KINOMEscan); details: inhibitor, read-out: IC50 (μM) Antag./Blocker/Inhibitor
T4 construct: T7 phage fusion (most assays) or DNA tag for qPCR (the remaining kinases); made in house; host or cells: E. coli (BL21-derived, T7 phage display) or HEK-293

COX2 = target: T5, COX2 (Homo sapiens, UniProt P35354); experiment: Enzymatic assay COX2; assay type: biochemical; details: inhibitor, read-out: IC50 (μM) Antag./Blocker/Inhibitor
T5 construct: purchased BPS Bioscience

[9] = target: Opioid Receptor Mu (OPRM1) (Homo sapiens, UniProt P35372); experiment: cell-based; details: cAMP, agonist, read-out: EC50 (μM) Agonist/Opener
Opioid Receptor Mu (OPRM1), sequence (P35372 whole entry): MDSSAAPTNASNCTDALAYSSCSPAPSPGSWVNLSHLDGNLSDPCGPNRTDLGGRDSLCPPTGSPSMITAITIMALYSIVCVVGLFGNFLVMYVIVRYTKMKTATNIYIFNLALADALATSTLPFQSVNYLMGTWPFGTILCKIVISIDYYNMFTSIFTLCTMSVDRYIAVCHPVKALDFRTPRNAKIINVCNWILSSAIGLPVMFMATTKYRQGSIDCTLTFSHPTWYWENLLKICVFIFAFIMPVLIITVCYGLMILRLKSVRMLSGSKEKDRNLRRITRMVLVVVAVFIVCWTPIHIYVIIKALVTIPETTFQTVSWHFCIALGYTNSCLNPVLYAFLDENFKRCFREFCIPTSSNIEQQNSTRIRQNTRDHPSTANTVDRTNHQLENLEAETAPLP

[10] = target: Dopamine Receptor D2 (DRD2S) (Homo sapiens, UniProt P14416); experiment: cAMP secondary messenger assay, agonist format; assay type: cell-based; details: read-out: EC50 (μM) Agonist/Opener
Dopamine Receptor D2 (DRD2S), sequence (P14416 1-414 isoform P14416-2): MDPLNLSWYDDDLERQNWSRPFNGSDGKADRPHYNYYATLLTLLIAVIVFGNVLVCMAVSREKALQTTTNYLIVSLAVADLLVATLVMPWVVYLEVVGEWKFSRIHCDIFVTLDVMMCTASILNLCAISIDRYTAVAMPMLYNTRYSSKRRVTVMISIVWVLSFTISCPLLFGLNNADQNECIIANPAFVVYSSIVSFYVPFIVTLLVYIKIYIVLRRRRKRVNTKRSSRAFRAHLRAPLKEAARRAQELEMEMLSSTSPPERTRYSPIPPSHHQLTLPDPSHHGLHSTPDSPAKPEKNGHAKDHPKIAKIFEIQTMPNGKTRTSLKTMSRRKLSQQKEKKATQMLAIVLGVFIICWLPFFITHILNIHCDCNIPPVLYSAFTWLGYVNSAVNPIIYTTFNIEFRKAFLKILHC

[11] = target: Histamine Receptor H2 (HRH2) (Homo sapiens, UniProt P25021); experiment: cAMP secondary messenger assay, antagonist format; assay type: cell-based; details: read-out: IC50 (μM) Antag./Blocker/Inhibitor
Histamine Receptor H2 (HRH2), sequence (P25021 whole entry): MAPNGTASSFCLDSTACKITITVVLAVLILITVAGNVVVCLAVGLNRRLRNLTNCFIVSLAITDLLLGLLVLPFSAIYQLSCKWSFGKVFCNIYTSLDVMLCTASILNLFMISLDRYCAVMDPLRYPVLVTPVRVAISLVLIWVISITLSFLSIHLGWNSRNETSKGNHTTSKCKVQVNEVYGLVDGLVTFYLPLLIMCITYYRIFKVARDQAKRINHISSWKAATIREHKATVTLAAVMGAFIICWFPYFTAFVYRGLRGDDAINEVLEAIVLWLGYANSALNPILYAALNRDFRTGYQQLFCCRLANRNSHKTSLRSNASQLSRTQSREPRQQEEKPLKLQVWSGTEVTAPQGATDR

[12] = target: T2, N-methyl-D-aspartate (NMDA) Glutamate Receptor 1A/2B (NMDAR (1A/2B)); experiment: Ion channel assay, blocker format; assay type: cell-based; details: read-out: IC50 (μM) Antag./Blocker/Inhibitor

Cannabinoid Receptor 2 (CNR2), sequence (P34972 whole entry): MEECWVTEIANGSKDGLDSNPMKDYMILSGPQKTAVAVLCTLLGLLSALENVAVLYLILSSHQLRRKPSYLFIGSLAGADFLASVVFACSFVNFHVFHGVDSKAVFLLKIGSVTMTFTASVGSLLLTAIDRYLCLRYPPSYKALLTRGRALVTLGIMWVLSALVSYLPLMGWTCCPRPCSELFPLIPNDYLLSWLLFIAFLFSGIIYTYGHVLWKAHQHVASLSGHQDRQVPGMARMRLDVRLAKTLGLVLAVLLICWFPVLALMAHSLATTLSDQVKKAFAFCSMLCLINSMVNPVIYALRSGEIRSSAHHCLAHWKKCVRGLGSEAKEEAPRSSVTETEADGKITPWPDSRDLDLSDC

CN(C)CCc1ccn2ccccc12 [28-12 oxalate, 2-(indolizin-1-yl)-N, N-dimethylethan-1-amine oxalate]
IC50 [1]: > 30 µM | IC50 [2]: > 30 µM | IC50 (COX1): 5.13 µM | EC50 [3]: > 30 µM | IC50 [4]: > 30 µM | EC50 [5]: > 30 µM | EC50 [6]: > 30 µM | IC50 [7]: 7.82 µM | IC50 [8]: > 30 µM | IC50 (COX2): > 30 µM | EC50 [9]: > 30 µM | EC50 [10]: > 30 µM | IC50 [11]: > 30 µM | IC50 [12]: > 30 µM
